Test results as given in ChEMBL document CHEMBL3822373, “An evolved oxazolidinone with selective potency against Mycobacterium tuberculosis and gram positive bacteria” (2016).
Activity calls are given as the source filed them. The rule behind the calls is not given here.

Tested on: Mycobacterium tuberculosis
Assay: Antibacterial activity against Mycobacterium tuberculosis H37Rv assessed as frequency of spontaneous resistant mutant at 5 and 10 times MIC90 measured after 5 weeks
Type: functional, organism-based

With CC(=O)NC[C@H]1CN(c2ccc3c(c2)Oc2ccccc2O3)C(=O)O1 the Activity was “inactive”.
